This is an account of results in patent US11203586B2, “Iridinesulfonamide compound and use method thereof” (Chia Tai Tianqing Pharmaceutical Group Co., Ltd., priority 2016, dated 2021).

Usually IC50 stands for the midpoint of a concentration-inhibition curve. The low end stands for greater potency in that assay, the high end for weaker potency in that assay.

Sequence of IDH1 (R132H) (O75874 whole entry R132H): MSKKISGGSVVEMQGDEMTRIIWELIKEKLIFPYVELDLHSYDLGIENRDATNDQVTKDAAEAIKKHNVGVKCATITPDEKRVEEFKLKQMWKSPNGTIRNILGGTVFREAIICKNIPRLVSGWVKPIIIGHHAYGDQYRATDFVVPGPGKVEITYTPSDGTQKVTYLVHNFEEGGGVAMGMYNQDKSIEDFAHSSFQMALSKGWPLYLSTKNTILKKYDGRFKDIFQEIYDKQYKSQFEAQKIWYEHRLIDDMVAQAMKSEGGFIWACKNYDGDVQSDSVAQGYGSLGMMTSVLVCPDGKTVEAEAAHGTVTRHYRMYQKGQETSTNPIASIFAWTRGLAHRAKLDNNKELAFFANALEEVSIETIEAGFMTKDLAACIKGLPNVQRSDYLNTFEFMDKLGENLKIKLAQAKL

The test deals with IDH1 (R132H) (Homo sapiens (Human), UniProt O75874, R132H). The test can be described thus: Enzyme assay, NADPH decrease detected with Diaphorase/Resazurin. The settings on record: 40 nM enzyme, 20 μM NADPH, incubated at 23° C. for 16 hours before α-KG; 12 concentrations. The format is biochemical. The text has this:
Resazurin is a traditional redox dye, and after a redox reaction, it can be reduced from a blue resazurin without fluorescence to a pink fluorescent substance, resorufin, which can be measured and quantified with relative fluorescence unit (RFU) of fluorophotometer (Ex=530-570 nm, Em=590-620 nm). At present, resazurin is widely used for determining the viability of bacteria, cells, etc. and the enzyme activity detection of oxidoreductase. We detected the decrease of cofactor NADPH to determine the inhibitory activity of a compound against IDHm and detected the generation of cofactor NADPH to determine the inhibitory activity of a compound against IDH WT.
The compound was pre-incubated with IDHm and NADPH, and then the reaction was initiated by adding α-KG and performed for certain time under a linear condition.
Then, Diaphorase (lipoamide dehydrogenase) and the corresponding substrate Resazurin were added thereto for detection. Lipoamide dehydrogenase terminated the IDH2m reaction by decreasing the available cofactor NADPH, which oxidized NADPH to NADP, and reduced resazurin to high fluorescent resorufin. The amount of the remaining cofactor NADPH after a specific reaction time was quantified via an easily detectable fluorophore.
The specific operation was as follows: 2.5 μl of the compound diluted in a 3-fold gradient was added to a 384-well plate, followed by adding 5 μL of the reaction buffer (20 mM Tris-HCl, pH 7.5; 150 mM NaCl; 10 mM MgCl2; 0.4 mg/mL BSA (Bovine Serum Albumin) and 2 mM DTT (dithiothreitol)) containing 40 nM IDH1 (R132H/R132C) and 20 μM NADPH. Then, the above test mixture was incubated at 23° C. for 16 hours, and then 2.5 μL of the reaction buffer containing 4 mM α-KG was added to initiate the reaction. After they were incubated for 60 minutes at room temperature, 5 μL of the termination mixture (0.4 U/ml Diaphorase and 20 μM Resazurin) formulated with the reaction buffer was added to convert resazurin to resorufin, so as to measure the amount of the remaining NADPH. After incubating at 23° C. for 10 minutes, fluorescence values were determined through Flexstation 3 at Ex535/Em595. The enzyme activity of each compound was respectively determined at 12 concentrations, and the data were calculated using the software GraFit6.0 (Erithacus Software) to obtain the IC50 value of each compound.
Background: Resazurin is reduced to fluorescent resorufin, in cell work by metabolically active cells.
The compound `O=C(NC1CCCCC1)C(c1ccccc1Cl)N(C(=O)CNS(=O)(=O)N1CC1)c1cncc(F)c1` (stereo not drawn) [Example 17, 2-(aziridine-1-sulfonylamino)-N-(1-(2-chlorophenyl)-2-(cyclohexylamino)-2-oxoethyl)-N-(5-fluoropyridin-3-yl)acetamide] showed an IC50 of under 0.02 µM. With `O=C(NC1CC(F)(F)C1)C(c1ccccc1Cl)N(C(=O)CNS(=O)(=O)N1CC1)c1ccc(F)c(F)c1` (stereo not drawn) [Example 29, 2-(aziridine-1-sulfonylamino)-N-(1-(2-chlorophenyl)-2-((3,3-difluorocyclobutyl)amino)-2-oxoethyl)-N-(3,4-difluorophenyl)acetamide], the half-inhibitory concentration (IC50) was under 0.02 µM.

Turning to `O=C(NC1CCCCC1)C(c1ccccc1Cl)N(C(=O)CCS(=O)(=O)N1CC1)c1cccc(F)c1` (stereo not drawn) [Example 6, 3-(aziridin-1-ylsulfonyl)-N-(1-(2-chlorophenyl)-2-(cyclohexylamino)-2-oxoethyl)-N-(3-fluorophenyl)propanamide], the half-inhibitory concentration (IC50) is under 0.02 µM. Compound `C[C@@H](NS(=O)(=O)N1CC1)C(=O)N(c1cccc(F)c1)[C@@H](C(=O)NC1CCCCC1)c1ccccc1Cl` [Example 3, (R)-2-(aziridine-1-sulfonylamino)-N—((R)-(2-chlorophenyl)-2-(cyclohexylamino)-2-oxoethyl)-N-(3-fluorophenyl)propanamide] had an IC50 of under 10 µM. Compound `O=C(NC1CC(F)(F)C1)[C@@H](c1ccccc1Cl)N(C(=O)[C@H]1CCN(S(=O)(=O)N2CC2)C1)c1cccc(F)c1` [Example 35, (S)-1-(aziridin-1-ylsulfonyl)-N—((R)-1-(2-chlorophenyl)-2-((3,3-difluorocyclobutyl)amino)-2-oxoethyl)-N-(3-fluorophenyl)pyrrolidine-3-carboxamide] had an IC50 of under 0.02 µM. `CC(C)[C@@H]1CN1S(=O)(=O)NCC(=O)N(c1cccc(F)c1)C(C(=O)NC1CCCCC1)c1ccccc1Cl` (stereo in doubt) [Example 9, 2-(2-chlorophenyl)-N-cyclohexyl-2-(N-(3-fluorophenyl)-2-((R)-2-isopropylaziridine-1-sulfonylamino)acetamido)acetamide] registered an IC50 of under 0.1 µM. Next, `C[C@@H](NS(=O)(=O)N1CC1)C(=O)N(c1cccc(F)c1)[C@H](C(=O)NC1CCCCC1)c1ccccc1Cl` [Example 4, (R)-2-(aziridine-1-sulfonylamino)-N—((S)-1-(2-chlorophenyl)-2-(cyclohexylamino)-2-oxoethyl)-N-(3-fluorophenyl)propanamide]: under 0.1 µM; `O=C(NC1CCCCC1)C(c1ccccc1Cl)N(C(=O)CCCS(=O)(=O)N1CC1)c1cccc(F)c1` (stereo not drawn) [Example 21, 4-(aziridin-1-ylsulfonyl)-N-(1-(2-chlorophenyl)-2-(cyclohexylamino)-2-oxoethyl)-N-(3-fluorophenyl)butanamide]: under 0.02 µM; `O=C(NC1CC(F)(F)C1)C(c1ccccc1Cl)N(C(=O)CNS(=O)(=O)N1CC1)c1cccc(C(F)(F)F)c1` (stereo not drawn) [Example 23, 2-(aziridine-1-sulfonylamino)-N-(1-(2-chlorophenyl)-2-((3,3-difluorocyclobutyl)amino)-2-oxoethyl)-N-(3-trifluoromethylphenyl)acetamide]: under 0.1 µM. With `O=C(NC1CCCCC1)[C@@H](c1ccccc1Cl)N(C(=O)[C@@H]1CCCN1S(=O)(=O)N1CC1)c1cccc(F)c1` [Example 18, (S)-1-(aziridin-1-ylsulfonyl)-N—((R)-1-(2-chlorophenyl)-2-(cyclohexylamino)-2-oxoethyl)-N-(3-fluorophenyl)pyrrolidine-2-carboxamide], the IC50 was under 10 µM.

In turn, `C[C@@H]1CN1S(=O)(=O)NCC(=O)N(c1cccc(F)c1)C(C(=O)NC1CCCCC1)c1ccccc1Cl` (stereo partly drawn) [Example 31, 2-(2-chlorophenyl)-N-cyclohexyl-2-(N-(3-fluorophenyl)-2-(((R)-2-methylaziridine)-1-sulfonylamino)acetamido)acetamide] came in with an IC50 of under 0.02 µM.

As for `NS(=O)(=O)c1cccc(N(C(=O)CNS(=O)(=O)N2CC2)C(C(=O)NC2CC(F)(F)C2)c2ccccc2Cl)c1` (stereo not drawn) [Example 28, 2-(aziridine-1-sulfonylamino)-N-(1-(2-chlorophenyl)-2-((3,3-difluorocyclobutyl)amino)-2-oxoethyl)-N-(3-aminosulfonylphenyl)acetamide], the IC50 was under 0.1 µM.

`O=C(NC1CCCCC1)C(c1ccccc1Cl)N(C(=O)C1CN(S(=O)(=O)N2CC2)C1)c1cccc(F)c1` (stereo not drawn) [Example 24, 1-(aziridin-1-ylsulfonyl)-N-(1-(2-chlorophenyl)-2-cyclohexylamino-2-oxoethyl)-N-(3-fluorophenyl)azetidine-3-carboxamide]: the IC50 is under 0.02 µM. Regarding `O=C(NC1CCCCC1)C(c1ccccc1Cl)N(C(=O)C1CCN(S(=O)(=O)N2CC2)C1)c1cccc(F)c1` (stereo not drawn) [Example 27, 1-(aziridin-1-ylsulfonyl)-N-(1-(2-chlorophenyl)-2-cyclohexylamino-2-oxoethyl)-N-(3-fluorophenyl)pyrrolidine-3-carboxamide], the half-maximal inhibitory concentration (IC50) was under 0.02 µM.

In turn, `CN(CC(=O)N(c1cccc(F)c1)C(C(=O)NC1CCCCC1)c1ccccc1Cl)S(=O)(=O)N1CC1` (stereo not drawn) [Example 12, 2-(2-chlorophenyl)-N-cyclohexyl-2-(N-(3-fluorophenyl)-2-(N-methylaziridine-1-sulfonylamino)acetamido)acetamide] showed an IC50 of under 0.02 µM. `O=C(NC1CC(F)(F)C1)C(c1ccccc1Cl)N(C(=O)CNS(=O)(=O)N1CC1)c1cncc(F)c1` (stereo not drawn) [Example 11, 2-(aziridine-1-sulfonylamino)-N-(1-(2-chlorophenyl)-2-((3,3-difluorocyclobutyl)amino)-2-oxoethyl)-N-(5-fluoropyridin-3-yl)acetamide] displayed an IC50 of under 0.1 µM. As to `O=C(NC1CC(F)(F)C1)[C@@H](c1ccccc1Cl)N(C(=O)CNS(=O)(=O)N1CC1)c1cccc(F)c1` [Example 26, (R)-2-(aziridine-1-sulfonylamino)-N-(1-(2-chlorophenyl)-2-((3,3-difluorocyclobutyl)amino)-2-oxoethyl)-N-(3-fluorophenyl)acetamide], the half-inhibitory concentration (IC50) is under 0.1 µM.

`C[C@H](NS(=O)(=O)N1CC1)C(=O)N(c1cccc(F)c1)C(C(=O)NC1CCCCC1)c1ccccc1Cl` (stereo partly drawn) [Example 2, (2)-2-(aziridine-1-sulfonylamino)-N-(1-(2-chlorophenyl)-2-(cyclohexylamino)-2-oxoethyl)-N-(3-fluorophenyl)propanamide] yielded an IC50 of under 0.5 µM. `O=C(NC1CC(F)(F)C1)C(c1ccccc1Cl)N(C(=O)CCCNS(=O)(=O)N1CC1)c1cccc(F)c1` (stereo not drawn) [Example 13, 4-(aziridine-1-sulfonylamino)-N-(1-(2-chlorophenyl)-2-((3,3-difluorocyclobutyl)amino)-2-oxoethyl)-N-(3-fluorophenyl)butanamide] came in with an IC50 of under 0.02 µM. In turn, `O=C(NC1CCCCC1)[C@H](c1ccccc1Cl)N(C(=O)[C@@H]1CCCN1S(=O)(=O)N1CC1)c1cccc(F)c1` [Example 19, (S)-1-(aziridin-1-ylsulfonyl)-N—((S)-1-(2-chlorophenyl)-2-(cyclohexylamino)-2-oxoethyl)-N-(3-fluorophenyl)pyrrolidine-2-carboxamide] yielded an IC50 of under 0.1 µM. Compound `C[C@H]1CN1S(=O)(=O)NCC(=O)N(c1cccc(F)c1)C(C(=O)NC1CCCCC1)c1ccccc1Cl` (stereo partly drawn) [Example 32, 2-(2-chlorophenyl)-N-cyclohexyl-2-(N-(3-fluorophenyl)-2-(((S)-2-methylaziridine)-1-sulfonylamino)acetamido)acetamide] came in with a half-inhibitory concentration (IC50) of under 0.02 µM. Next, `O=C(NC1CCCCC1)C(c1ccccc1Cl)N(C(=O)CNS(=O)(=O)N1CC1)c1cc(F)cc(F)c1` (stereo not drawn) [Example 16, 2-(aziridine-1-sulfonylamino)-N-(1-(2-chlorophenyl)-2-(cyclohexylamino)-2-oxoethyl)-N-(3,5-difluorophenyl)acetamide]: under 0.02 µM.

Take `O=C(NC1CC(F)(F)C1)C(c1ccccc1Cl)N(C(=O)CCNS(=O)(=O)N1CC1)c1cccc(F)c1` (stereo not drawn) [Example 8, 3-(aziridine-1-sulfonylamino)-N-(1-(2-chlorophenyl)-2-((3,3-difluorocyclobutyl)amino)-2-oxoethyl)-N-(3-fluorophenyl)propanamide]: the IC50 was under 0.02 µM. `O=C(NC1CCCCC1)C(c1ccccc1Cl)N(C(=O)C1CC(NS(=O)(=O)N2CC2)C1)c1cccc(F)c1` (stereo not drawn) [Example 22, 3-(aziridine-1-sulfonylamino)-N-(1-(2-chlorophenyl)-2-cyclohexylamino-2-oxoethyl)-N-(3-fluorophenyl)cyclobutyl carboxamide] yielded a concentration for half-maximal inhibition (IC50) of under 0.02 µM.
